Measurements published in ChEMBL document CHEMBL3286334, “Identification of tetrapeptides from a mixture based positional scanning library that can restore nM full agonist function of the L106P, I69T, I102S, A219V, C271Y, and C271R human melanocortin-4 polymorphic receptors (hMC4Rs)” (J Med Chem, 2014).

Legend:
Format in all cases: functional, cell-based
Melanocortin receptor 4 [1] = target: Melanocortin receptor 4 (Homo sapiens, UniProt P32245, C271Y); experiment: Agonist activity at human melanocortin-4 receptor C271Y mutant expressed in HEK293 cells co-transfected with CRE/beta-galactosidase reporter gene assessed as stimulatory response after 6 hrs
Melanocortin receptor 4 [2] = target: Melanocortin receptor 4 (Homo sapiens, UniProt P32245, C271R); experiment: Agonist activity at human melanocortin-4 receptor C271R mutant expressed in HEK293 cells co-transfected with CRE/beta-galactosidase reporter gene assessed as stimulatory response after 6 hrs
Melanocortin receptor 4 [3] = target: Melanocortin receptor 4 (Homo sapiens, UniProt P32245, I102S); experiment: Agonist activity at human melanocortin-4 receptor I102S mutant expressed in HEK293 cells co-transfected with CRE/beta-galactosidase reporter gene assessed as stimulatory response after 6 hrs
Melanocortin receptor 4 [4] = target: Melanocortin receptor 4 (Mus musculus, UniProt P56450); experiment: Agonist activity at mouse melanocortin-4 receptor expressed in HEK293 cells co-transfected with CRE/beta-galactosidase reporter gene assessed as stimulatory response after 6 hrs
[5] = target: Melanocyte-stimulating hormone receptor (Mus musculus, UniProt Q01727); experiment: Agonist activity at mouse melanocortin-1 receptor expressed in HEK293 cells co-transfected with CRE/beta-galactosidase reporter gene assessed as stimulatory response after 6 hrs
Melanocortin receptor 4 [6] = target: Melanocortin receptor 4 (Homo sapiens, UniProt P32245, A219V); experiment: Agonist activity at human melanocortin-4 receptor A219V mutant expressed in HEK293 cells co-transfected with CRE/beta-galactosidase reporter gene assessed as stimulatory response after 6 hrs
Melanocortin receptor 4 [7] = target: T1, Melanocortin receptor 4 (Homo sapiens, UniProt P32245); experiment: Agonist activity at wild type human melanocortin-4 receptor expressed in HEK293 cells co-transfected with CRE/beta-galactosidase reporter gene assessed as stimulatory response after 6 hrs
Melanocortin receptor 4 [8] = target: Melanocortin receptor 4 (Homo sapiens, UniProt P32245, I69T); experiment: Agonist activity at human melanocortin-4 receptor I69T mutant expressed in HEK293 cells co-transfected with CRE/beta-galactosidase reporter gene assessed as stimulatory response after 6 hrs
Melanocortin receptor 5 = Melanocortin receptor 5 (Mus musculus, UniProt P41149); experiment: Agonist activity at mouse melanocortin-5 receptor expressed in HEK293 cells co-transfected with CRE/beta-galactosidase reporter gene assessed as stimulatory response after 6 hrs
Melanocortin receptor 4 [9] = target: Melanocortin receptor 4 (Homo sapiens, UniProt P32245, L106P); experiment: Agonist activity at human melanocortin-4 receptor L106P mutant expressed in HEK293 cells co-transfected with CRE/beta-galactosidase reporter gene assessed as stimulatory response after 6 hrs
[10] = test system: Melanocortin receptor 4 (Homo sapiens), P32245 [L106P]; experiment: Agonist activity at human melanocortin-4 receptor L106P mutant expressed in HEK293 cells co-transfected with CRE/beta-galactosidase reporter gene assessed as stimulatory response at 10 uM after 6 hrs
Melanocortin receptor 4 [11] = target: T1, Melanocortin receptor 4; experiment: Agonist activity at wild type human melanocortin-4 receptor expressed in HEK293 cells co-transfected with CRE/beta-galactosidase reporter gene assessed as stimulatory response at 100 uM after 6 hrs
[12] = test system: Melanocortin receptor 4 (Homo sapiens), P32245 [L106P]; experiment: Agonist activity at human melanocortin-4 receptor L106P mutant expressed in HEK293 cells co-transfected with CRE/beta-galactosidase reporter gene assessed as stimulatory response at 100 uM after 6 hrs

Row | Activity (Melanocortin receptor 4 [11]) | Activity [12] | Compound | EC50 (Melanocortin receptor 4 [1]) | EC50 (Melanocortin receptor 4 [2]) | EC50 (Melanocortin receptor 4 [3]) | EC50 (Melanocortin receptor 4 [4]) | EC50 [5] | EC50 (Melanocortin receptor 4 [6]) | EC50 (Melanocortin receptor 4 [7]) | EC50 (Melanocortin receptor 4 [8]) | EC50 (Melanocortin receptor 5) | EC50 (Melanocortin receptor 4 [9]) | Activity [10]
1 | – | – | CC(=O)N[C@@H](CCCNC(=N)N)C(=O)N[C@H](Cc1ccc(Cl)cc1)C(=O)N1Cc2ccccc2C[C@H]1C(=O)N[C@H](Cc1ccc([N+](=O)[O-])cc1)C(N)=O | 470 nM | 3390 nM | 4.4 nM | 7.6 nM | 22 nM | 4.2 nM | 0.21 nM | 5.2 nM | 1 nM | 3.4 nM | –
2 | – | – | CC(=O)N[C@@H](Cc1c[nH]cn1)C(=O)N[C@H](Cc1ccc(I)cc1)C(=O)N1Cc2ccccc2C[C@H]1C(=O)N[C@H](Cc1ccc([N+](=O)[O-])cc1)C(N)=O | 190 nM | 295 nM | 14 nM | 2.4 nM | 2.9 nM | 4.5 nM | 0.24 nM | 3.8 nM | 0.84 nM | 10 nM | –
3 | – | – | CC(=O)N1Cc2ccccc2CC1C(=O)N[C@H](Cc1ccc(I)cc1)C(=O)N1Cc2ccccc2CC1C(=O)N[C@@H](Cc1ccc(I)cc1)C(N)=O (stereo partly drawn) | – | – | – | – | – | – | – | – | – | – | 70%
4 | – | – | CC(=O)N[C@@H](Cc1c[nH]cn1)C(=O)N[C@H](Cc1ccc(Cl)cc1)C(=O)N1Cc2ccccc2C[C@H]1C(=O)N[C@H](Cc1ccc([N+](=O)[O-])cc1)C(N)=O | 82 nM | 130 nM | 3 nM | 5.2 nM | 4 nM | 2.8 nM | 0.4 nM | 4.3 nM | 0.63 nM | 15 nM | –
5 | 50% | 50% | CC(=O)N1Cc2ccccc2CC1C(=O)N[C@H](Cc1ccc(I)cc1)C(=O)N1Cc2ccccc2CC1C(=O)N1Cc2ccccc2CC1C(N)=O (stereo partly drawn) | – | – | – | – | – | – | – | – | – | – | –
